Reference: US11590167B2, “Methods and compositions for use of therapeutic T cells in combination with kinase inhibitors” (Juno Therapeutics, Inc., priority 2016, dated 2023)

How the values were obtained:
Itk = molecular target: T1, Itk (Homo sapiens, UniProt Q08881); conditions: reported, Byrd et al. 2016; cited from earlier work
T1 sequence (Q08881 1-620): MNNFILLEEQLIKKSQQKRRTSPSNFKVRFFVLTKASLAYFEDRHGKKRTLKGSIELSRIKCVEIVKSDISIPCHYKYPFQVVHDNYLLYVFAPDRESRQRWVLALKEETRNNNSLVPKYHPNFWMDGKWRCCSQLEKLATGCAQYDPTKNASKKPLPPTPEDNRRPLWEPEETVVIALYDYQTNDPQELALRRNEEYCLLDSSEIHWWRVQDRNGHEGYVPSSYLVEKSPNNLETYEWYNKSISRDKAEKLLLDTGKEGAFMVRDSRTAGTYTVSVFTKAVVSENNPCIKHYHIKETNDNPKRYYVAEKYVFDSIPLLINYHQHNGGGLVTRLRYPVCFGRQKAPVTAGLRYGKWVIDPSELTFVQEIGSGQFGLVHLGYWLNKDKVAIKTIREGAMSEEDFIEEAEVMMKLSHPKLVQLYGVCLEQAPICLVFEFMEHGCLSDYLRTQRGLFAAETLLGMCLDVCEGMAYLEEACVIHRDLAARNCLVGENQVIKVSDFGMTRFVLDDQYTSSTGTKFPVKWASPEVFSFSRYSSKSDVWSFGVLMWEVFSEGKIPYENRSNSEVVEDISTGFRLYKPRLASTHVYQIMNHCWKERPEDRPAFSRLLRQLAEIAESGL

[1] = test system: CAR+ T cells harvested from bone marrow; assay: Ex vivo immunophenotyping (t-SNE) of CAR+ T cells harvested from bone marrow; format: in vivo, NSG mice; conditions: day 12 post CAR T transfer
Protocol: NSG mice described in Example 2 were intravenously injected on day 0 with 5×10^5 Nalm-6 cells expressing firefly luciferase. […] A bridging experiment confirmed that administration of ibrutinib by drinking water was equivalent to oral gavage administration (data not shown). To permit assessment of the effect of a combination therapy with the inhibitor, a suboptimal dose of anti-CD19 CAR T cells was i.v. injected into the mice at 5×10^5/mouse at day 5. As a control, mice were administered the vehicle control without administration of the CAR-T cells or inhibitor.
Cells were assessed for surface markers CD44, CD45RA, CD62L, CD154, CXCR3, CXCR4, PD-1 by flow cytometry and T-distributed stochastic neighbor embedding (t-SNE) high dimensional analysis was performed using FlowJo software. […] Using multivariate t-SNE FACS analysis based on pooled analysis from three mice per group, 4 distinct population clusters were identified (FIG. 8B). FACs histograms showing the individual expression profiles of CD4, CD8, CD62L, CD45RA, CD44 and CXCR3 from the 4 gated t-SNE in FIG. 8A overlaid on the expression of the total population (shaded) is shown in FIG. 8C. […] Statistically significant differences are indicated as […] (*), P<0.01 (**), P<0.001 (***), P<0.0001 (****).

[2] = observed Cmax quoted for dosage range; cited from earlier work
[3] = test system: Nalm-6 cells expressing firefly luciferase; assay: Nalm-6 disseminated tumor xenograft mouse model, inhibitor in drinking water with suboptimal anti-CD19 CAR T dose; format: in vivo, NSG mice
Protocol: To permit assessment of the effect of a combination therapy with the inhibitor, a suboptimal dose of anti-CD19 CAR T cells was i.v. injected into the mice at 5×10^5/mouse at day 5. As a control, mice were administered the vehicle control without administration of the CAR-T cells or inhibitor.
Following treatment as described above, the tumor growth and percent survival of treated mice was determined.

CC#CC(=O)N1CCC[C@H]1c1nc(-c2ccc(C(=O)Nc3ccccn3)cc2)c2c(N)nccn12 [compound of Formula (II)]
lower affinity for ITK compared with ibrutinib (Itk): > 200 times
population 2 (CD8+CD44hiCXCR3hiCD45RAloCD62Lhi) and population 4 (CD4+CD44hiCXCR3intCD45RAhiCD62Lhi) compared to control mice [1]: An increase
population 2 as share of CAR-T cells ([1]; pooled from three mice): 29.2%
population 4 as share of CAR-T cells ([1]; pooled from three mice): 8.4%
Cmax [2]: 1800 nM
tumor growth compared with CAR T administered with vehicle alone ([3]; with CAR T, drinking water 25 mg/kg/day): significantly (P<0.001) decreased tumor growth
median survival compared to suboptimal anti-CD19 CAR T cell dose+vehicle ([3]; with CAR-T cells, drinking water 25 mg/kg/day from day 4, p<0.001): increased median survival
